Results taken from patent US20060172996A1, “Method of preventing relapse in the abstinent substance dependent individual” (priority 2005, published 2006).

System: otherwise abstinent person
Experiment: Human use of Flumazenil during a period of urges for a substance of abuse
Assay type: in vivo
Settings: placed into the blood stream as quickly as possible during a period of urges
From the text: While an IV might accomplish the above noted task, it is not realistic for a person, after having undergone detoxification, to have repeated IV therapies daily, to prevent a relapse so as not become substance abuse dependent again. Such a person would have to go to a treatment location where an IV can be administered.

`CCOC(=O)c1ncn2c1CN(C)C(=O)c1cc(F)ccc1-2` [Flumazenil] was tested, and the “Urge for a substance of abuse such as alcohol” value was “the urge will disappear”.
